Data as given in patent publication US8501911B2, “Methods of reducing inflammation and mucus hypersecretion” (Biomarck Pharmaceuticals, Ltd, priority 1999, dated 2013).
Residues, ends and D or L forms follow the SMILES beside them. *: point of attachment. Myristoyl = CCCCCCCCCCCCCC(=O)*

Columns and labels:
[1] = test system: NHBE cells; assay: PMA+8-Br-cGMP-induced mucin secretion from NHBE cells (ELISA); format: cell-based, human; details: pre- and co-incubation with 100 nM PMA+1 μM 8-Br-cGMP (Results-M-1A/M-3A)
Description: Peptide Blocking Studies—NHBE cells were preincubated with either the MANS or the RNS peptide (1-100 μM) for 15 min, and then PMA (100 nM)+8-Br-cGMP (1 μM) or UTP (100 μM) was added, and cells were incubated for an additional 15 min or 2 h. respectively. Mucin secretion was measured by ELISA and experimental results are designated as Results-I-2B-1 and Results-I-2B-2, as follows. […]
Measurement of Mucin Secretion by ELISA—Before collection of “base line” and “test” mucin samples, the accumulated mucus at the apical surface of the cells was removed by washing with phosphate-buffered saline, pH 7.2. To collect the base-line secretion, cells were incubated with medium alone, and secreted mucin in the apical medium was collected and reserved. Cells were rested for 24 h and then exposed to medium containing the selected stimulatory and/or inhibitory reagents (or appropriate controls), after which secreted mucin was collected and reserved as the test sample. Incubation times for the base line and the test were the same but varied depending on the test reagent utilized. Both base line and test secretions were analyzed by ELISA using an antibody capture method as known in the art. See, e.g., Harlow et al., Antibodies: A Laboratory Manual, pp. 570-573, Cold Spring Harbor Laboratory, Cold Spring Harbor, N.Y. (1988). The primary antibody for this assay was 17Q2 (Babco, Richmond, Calif.), a monoclonal antibody that reacts specifically with a carbohydrate epitope on human airway mucins. The ratio of test/base-line mucin, which is similar to a “secretory index”, was used to quantify mucin secretion, allowing each culture dish to serve as its own control and thus, minimizing deviation caused by variability among culture wells. Wright et al., Am. J. Physiol. 271, L854-L861 (1996). Levels of mucin secretion were reported as percentage of the medium control.
MARCKS-related Peptides—Both the myristoylated N-terminal sequence (MANS) and the random N-terminal sequence (RNS) peptides were synthesized at Genemed Synthesis, Inc. (San Francisco, Calif.), then purified by high pressure liquid chromatography (>95% pure), and confirmed by mass spectroscopy with each showing one single peak with an appropriate molecular mass. The MANS peptide consisted of sequence identical to the first 24 amino acids of MARCKS, i.e. the myristoylated N-terminal region that mediates MARCKS insertion into membranes, MA-[…] (SEQ ID NO: 1) (where MA=N-terminal myristate chain). The corresponding control peptide (RNS) contained the same amino acid composition as the MANS but arranged in random order, MA-[…] (SEQ ID NO: 26). The presence of the hydrophobic myristate moiety in these synthetic peptides enhances their permeability to the plasma membranes, enabling the peptides to be taken up readily by cells. To determine the effects of these peptides on mucin secretion, cells were preincubated with the peptides for 15 min prior to addition of secretagogues, and mucin secretion was then measured by ELISA.
Antisense Oligonucleotides—MARCKS antisense oligonucleotide and its corresponding control oligonucleotide were synthesized at Biognostik GmbH (Gottingen, Germany). NHBE cells were treated with 5 μM antisense or control oligonucleotide apically for 3 days (in the presence of 2 μg/ml lipofectin for the first 24 h). Cells were then incubated with secretagogues, and mucin secretion was measured by ELISA. Total RNA and protein were isolated from treated cells. MARCKS mRNA was assessed by Northern hybridization according to conventional procedures using human MARCKS cDNA as a probe. MARCKS protein level was determined by Western blot using purified anti-MARCKS IgG1 (clone 2F12) as the primary detection antibody.
The effect on mucus secretion of a myristoylated peptide containing the first 24 amino acids of the human MARCKS protein (MANS; myristoylated N-terminal sequence; SEQ ID NO: ) was tested. Cultured normal human bronchial epithelial cells as described above were used. […]

[2] = test system: human bronchial epithelial cells; assay: Basal (constitutive) mucin secretion by human bronchial epithelial cells; format: cell-based; details: one hour incubation
Description: Mucus secreted from the airway epithelial cells in vitro after stimulation by activators was assessed using an ELISA (antibody capture method) (E. Harlow, D. Lane. “Antibodies: A Laboratory Manual.” New York: Cold Spring Harbor Laboratory Press, 1988), wherein the collected mucus is bound directly to the ELISA plate. Mucus was detected using an antibody raised against monkey airway mucus (Lin et al. Am J Respir Cell Mol Biol 1:41, 1989).
The MANS peptide (100 μM) was also found to decrease constitutive (basal) mucus secretion by one hour incubation. Cells were treated as described above except that no PMA or 8-Br-cGMP was used. […] Results, designated as Results-M-1B, are presented as follows and show the inhibition of basal mucin secretion by human bronchial epithelial cells exposed to the MANS peptide (SEQ ID NO: 1) or a negative control peptide consisting of the same amino acids as the MANS peptide, but in random order (RNS peptide; random N-terminal sequence (SEQ ID NO: 26):
The effect of MA-PSD peptide (1, 10 and 100 μM) on basal mucin secretion was also measured. Cells as described above were incubated for one hour with the MA-PSD peptide (no PMA or 8-Br-cGMP).

[3] = target: T1, cGMP-dependent protein kinase (PKG) (Homo sapiens, UniProt Q13976); assay: PKG activity in NHBE cells; format: cell-based; details: 100 μM
T1 construct: endogenous in cells; host or cells: NHBE cells
T1 sequence (Q13976 1-671): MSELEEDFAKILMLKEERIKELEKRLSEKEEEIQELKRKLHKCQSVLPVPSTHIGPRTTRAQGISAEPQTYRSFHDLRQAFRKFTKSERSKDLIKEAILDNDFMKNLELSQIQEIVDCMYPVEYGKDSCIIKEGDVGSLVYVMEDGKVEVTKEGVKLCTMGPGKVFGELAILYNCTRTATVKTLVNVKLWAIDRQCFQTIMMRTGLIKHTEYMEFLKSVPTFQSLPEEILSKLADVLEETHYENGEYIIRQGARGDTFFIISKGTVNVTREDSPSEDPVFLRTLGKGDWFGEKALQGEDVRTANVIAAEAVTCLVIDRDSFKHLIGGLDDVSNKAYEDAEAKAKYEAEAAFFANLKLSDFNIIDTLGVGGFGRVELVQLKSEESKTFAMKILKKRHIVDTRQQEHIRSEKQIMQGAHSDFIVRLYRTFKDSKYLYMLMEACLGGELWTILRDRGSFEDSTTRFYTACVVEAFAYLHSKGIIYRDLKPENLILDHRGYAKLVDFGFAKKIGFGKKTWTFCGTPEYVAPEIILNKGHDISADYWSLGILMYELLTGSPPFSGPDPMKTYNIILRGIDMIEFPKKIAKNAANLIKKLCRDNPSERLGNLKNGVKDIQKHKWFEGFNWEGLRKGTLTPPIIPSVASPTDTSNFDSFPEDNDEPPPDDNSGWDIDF
Description: Phosphorylation of MARCKS by PMA was attenuated by Calphostin C (500 nM). NHBE cells also contained substantial amounts of cGMP-dependent protein kinase type 1α (PKG-1α) activity, which was localized to the cytosolic fraction. […] In addition, the phosphorylation of MARCKS induced by PMA was reversed by incubation with 8-Br-cGMP (10 μM).

Row | SMILES | Mucin secretion level relative to media control ([1]; peptide 1 μM) [%] | Mucin secretion level relative to media control ([1]; peptide 10 μM) [%] | Mucin secretion level relative to media control ([1]; peptide 100 μM) [%] | Basal mucin secretion level relative to control ([2]; peptide 1 μM) [%] | Basal mucin secretion level relative to control ([2]; peptide 10 μM) [%] | Basal mucin secretion level relative to control ([2]; peptide 100 μM, no PMA or 8-Br-cGMP) [%] | PKG activity [3]
1 | CCCCCCCCCCCCCC(=O)N[C@@H](CCCCN)C(=O)N[C@@H](CCCCN)C(=O)N[C@@H](CCCCN)C(=O)N[C@@H](CCCCN)C(=O)N[C@@H](CCCCN)C(=O)N[C@@H](CCCNC(=N)N)C(=O)N[C@@H](Cc1ccccc1)C(=O)N[C@@H](CO)C(=O)N[C@@H](Cc1ccccc1)C(=O)N[C@@H](CCCCN)C(=O)N[C@@H](CCCCN)C(=O)N[C@@H](CO)C(=O)N[C@@H](Cc1ccccc1)C(=O)N[C@@H](CCCCN)C(=O)N[C@@H](CC(C)C)C(=O)N[C@@H](CO)C(=O)NCC(=O)N[C@@H](Cc1ccccc1)C(=O)N[C@@H](CO)C(=O)N[C@@H](Cc1ccccc1)C(=O)N[C@@H](CCCCN)C(=O)N[C@@H](CCCCN)C(=O)N[C@@H](CC(N)=O)C(=O)N[C@@H](CCCCN)C(=O)N[C@@H](CCCCN)C(=O)O [MA-PSD peptide] (Myristoyl-KKKKKRFSFKKSFKLSGFSFKKNKK-OH; C-terminus assumed) | 226 | 316 | 191 | 102 | 91 | 285 | 
2 | CCCC(=O)Nc1nc2c(ncn2[C@@H]2O[C@@H]3COP(=O)(O)O[C@H]3[C@H]2OC(=O)CCC)c(=O)[nH]1 [dibutryl cGMP] |  |  |  |  |  |  | increased
